In article PMC6511062, “Preclinical candidate for the treatment of visceral leishmaniasis that acts through proteasome inhibition” (Proceedings of the National Academy of Sciences of the …, 2019):
“Also recorded” adds a separate entry of the source. Where two headings read alike, the source gives them in different places.

Assays:
[1] = test system: ubiquitylated proteins in L. donovani axenic amastigotes; experiment: Western blot of ubiquitylated proteins in axenic amastigotes; format: cell-based, Leishmania donovani; conditions: dose-dependent
Protocol: (§1) k. Proteasome activity assays
Compounds were dispensed into black 384-well assay plates (Greiner) by acoustic dispensing (LabCyte ECHO). For potency determinations, eleven-point, one in three dilution curves were generated, with a top concentration of 100 µM. Three proteasome activities were measured using a commercially available indirect enzyme-based luminescent assay kit (Promega) with Suc-LLVY-aminoluciferin, Z-LRR-aminoluciferin and Z-nLPnLD-aminoluciferin used as substrates for chymotrypsin-like, trypsin-like and caspase-like activities, respectively. In addition to proteasome samples: L. donovani and THP1-enriched proteasomes, commercially available human purified 26S proteasome (Boston Biochem) was also assessed. Proteasome final assay concentration were 0.025 mg/ml for L. donovani and THP1-enriched proteasomes and 1 nM for human purified 26S proteasome. […]
Substrate solution was then added and after 30 min of incubation luminescent signal was measured in an Envision reader (PerkinElmer). […]
(§2) value) were used as negative and positive controls, respectively. […] Protein concentrations were determined by standard Bradford assays and Laemmli sample buffer was added to samples. […]
Figure S6. […] Ubiquitin proteins were detected using the human anti-ubiquitin P4D1 antibody diluted 1:1,000. […]

TA100 = test system: TA100
Protocol: (§3) oxidative metabolism system (S9-mix). The maximum concentration tested and […]
(§4) Compound 7a was tested in a bacterial mutation screening assay (Ames test) with Salmonella typhimurium TA1535, TA1537, TA98, TA100 and Escherichia coli WP2uvrA(pKM101) in the presence and absence of an exogenous mammalian […]
(§5) The bacterial mutation screening assay was a plate incorporation test carried out as previously described15 and according to current methodology. […]

TA1535 = test system: TA1535
Protocol: as §3, §4, §5

[2] = test system: caspase activity of the L. donovani proteasome; experiment: Proteasome activity assay, caspase-like, L. donovani; format: biochemical, Leishmania donovani
Protocol: as §1
Compounds were dispensed into black 384-well assay plates (Greiner) by acoustic dispensing (LabCyte ECHO). For potency determinations, eleven-point, one in three dilution curves were generated, with a top concentration of 100 µM. Three proteasome activities were measured using a commercially available indirect enzyme-based luminescent assay kit (Promega) with Suc-LLVY-aminoluciferin, Z-LRR-aminoluciferin and Z-nLPnLD-aminoluciferin used as substrates for chymotrypsin-like, trypsin-like and caspase-like activities, respectively. In addition to proteasome samples: L. donovani and THP1-enriched proteasomes, commercially available human purified 26S proteasome (Boston Biochem) was also assessed. Proteasome final assay concentration were 0.025 mg/ml for L. donovani and THP1-enriched proteasomes and 1 nM for human purified 26S proteasome. Proteasome solution was added to the plates containing the compounds one hour before adding the proteasome substrate solution.
Substrate solution was then added and after 30 min of incubation luminescent signal was measured in an Envision reader (PerkinElmer).
Cultures of L. donovani axenic amastigotes were diluted to either 8 x 106 or 8 x 107 […]
value. […]
as §2

[3] = with S9-mix, dose level 50 per plate
[4] = with S9-mix, dose level 150 per plate
[5] = with S9-mix, dose level 500 per plate
[6] = with S9-mix, dose level 1500 per plate
[7] = with S9-mix, dose level 2500 per plate
[8] = with S9-mix, dose level 5000 per plate
[9] = without S9-mix, dose level 50 per plate
[10] = without S9-mix, dose level 150 per plate
[11] = without S9-mix, dose level 500 per plate
[12] = without S9-mix, dose level 1500 per plate
[13] = without S9-mix, dose level 2500 per plate
[14] = without S9-mix, dose level 5000 per plate

SMILES: O=C(Nc1ccc(F)c(-c2ccn3c(N4CCOCC4)cnc3n2)c1)N1CCCC1 [Compound 8]
- accumulation of ubiquitylated proteins [1]: dose-dependent manner; also recorded: induces the accumulation of ubiquitylated proteins
- Mean revertants per plate (TA100; [3]): 123.0
- Mean revertants per plate (TA100; [4]): 96.5
- Mean revertants per plate (TA100; [5]): 106.5
- Mean revertants per plate (TA100; [6]): 118.0
- Mean revertants per plate (TA100; [7]): 101.0
- Mean revertants per plate (TA100; [8]): 122.5
- Mean revertants per plate (TA100; [9]): 99.0
- Mean revertants per plate (TA100; [10]): 97.0
- Mean revertants per plate (TA100; [11]): 86.0
- Mean revertants per plate (TA100; [12]): 109.5
- Mean revertants per plate (TA100; [13]): 91.5
- Mean revertants per plate (TA100; [14]): 94.5
- Mean revertants per plate (TA1535; [3]): 12.0
- Mean revertants per plate (TA1535; [4]): 10.0
- Mean revertants per plate (TA1535; [5]): 17.5
- Mean revertants per plate (TA1535; [6]): 13.5
- Mean revertants per plate (TA1535; [7]): 12.5
- Mean revertants per plate (TA1535; [8]): 9.0
- Mean revertants per plate (TA1535; [9]): 19.0
- Mean revertants per plate (TA1535; [10]): 15.0
- Mean revertants per plate (TA1535; [11]): 21.5
- Mean revertants per plate (TA1535; [12]): 16.0
- Mean revertants per plate (TA1535; [13]): 15.5
- Mean revertants per plate (TA1535; [14]): 18.0
- effect on caspase activity [2]: no effect
